Experimental data from ChEMBL document CHEMBL1275338, “Design, synthesis and bioevaluation of dihydropyrazolo[3,4-b]pyridine and benzo[4,5]imidazo[1,2-a]pyrimidine compounds as dual KSP and Aurora-A kinase inhibitors for anti-cancer agents” (Bioorg Med Chem, 2010).

How the values were obtained:
[1] = target: T1, Kinesin-like protein KIF11 (Homo sapiens, UniProt P52732); experiment: Inhibition of human Eg5 motor domain (residues 2-386) ATPase activity expressed in Escherichia coli assessed as release of inorganic phosphate after 30 mins
T1 sequence (P52732 whole entry): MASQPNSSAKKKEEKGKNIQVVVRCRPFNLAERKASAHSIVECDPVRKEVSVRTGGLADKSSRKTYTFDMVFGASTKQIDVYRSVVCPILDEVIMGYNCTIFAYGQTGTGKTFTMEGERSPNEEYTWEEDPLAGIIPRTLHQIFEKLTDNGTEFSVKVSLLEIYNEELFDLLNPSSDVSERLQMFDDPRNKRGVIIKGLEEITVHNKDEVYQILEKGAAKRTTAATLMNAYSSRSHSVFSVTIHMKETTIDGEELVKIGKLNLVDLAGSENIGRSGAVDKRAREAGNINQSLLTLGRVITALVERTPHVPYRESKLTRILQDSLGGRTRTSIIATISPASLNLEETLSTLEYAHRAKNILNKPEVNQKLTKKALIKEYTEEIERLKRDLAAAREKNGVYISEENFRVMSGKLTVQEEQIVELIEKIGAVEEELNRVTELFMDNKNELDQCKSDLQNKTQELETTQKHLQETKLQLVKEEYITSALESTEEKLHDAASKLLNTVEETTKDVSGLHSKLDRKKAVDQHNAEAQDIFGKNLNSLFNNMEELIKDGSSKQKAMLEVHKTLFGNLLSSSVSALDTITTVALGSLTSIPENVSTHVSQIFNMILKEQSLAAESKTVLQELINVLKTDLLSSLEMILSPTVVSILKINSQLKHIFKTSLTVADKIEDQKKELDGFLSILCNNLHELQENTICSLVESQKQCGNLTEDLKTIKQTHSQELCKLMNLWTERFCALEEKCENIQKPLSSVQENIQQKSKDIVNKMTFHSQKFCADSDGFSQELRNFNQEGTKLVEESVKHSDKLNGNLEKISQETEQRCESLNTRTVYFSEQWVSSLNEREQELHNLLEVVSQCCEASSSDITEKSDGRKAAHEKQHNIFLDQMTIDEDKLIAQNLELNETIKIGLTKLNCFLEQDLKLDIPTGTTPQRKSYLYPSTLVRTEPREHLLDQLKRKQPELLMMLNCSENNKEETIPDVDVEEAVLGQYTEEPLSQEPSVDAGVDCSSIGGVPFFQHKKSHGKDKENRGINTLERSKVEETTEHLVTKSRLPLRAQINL

A2780 = experiment: cells; settings: Homo sapiens, A2780, 72 h
Description: Cytotoxicity against human A2780 cells after 72 hrs by MTT assay

HCT-116 [2] = experiment: cells; settings: Homo sapiens, HCT-116, 72 h
Aurora kinase A = target: T2, Aurora kinase A (Homo sapiens, UniProt O14965); experiment: Inhibition of human purified recombinant aurora-A kinase
T2 sequence (O14965 whole entry): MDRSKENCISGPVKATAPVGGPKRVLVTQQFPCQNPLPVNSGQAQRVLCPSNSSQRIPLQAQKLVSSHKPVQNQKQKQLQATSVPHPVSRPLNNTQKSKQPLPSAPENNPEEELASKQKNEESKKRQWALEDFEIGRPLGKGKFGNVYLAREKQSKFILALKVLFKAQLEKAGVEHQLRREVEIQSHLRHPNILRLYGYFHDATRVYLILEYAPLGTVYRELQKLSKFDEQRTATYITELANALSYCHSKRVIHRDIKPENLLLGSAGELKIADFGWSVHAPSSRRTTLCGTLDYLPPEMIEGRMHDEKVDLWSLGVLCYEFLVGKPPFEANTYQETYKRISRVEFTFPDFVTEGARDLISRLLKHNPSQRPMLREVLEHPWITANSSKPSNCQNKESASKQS

HepG2 = experiment: cells; settings: Homo sapiens, HepG2, 72 h
Description: Cytotoxicity against human HepG2 cells after 72 hrs by MTT assay

HCT-116 [3] = experiment: Ratio of CPUYL064 IC50 to compound IC50 for human HCT116 cells

| Compound | IC50 [1] [µM] | IC50 (A2780) [µM] | IC50 (HCT-116 [2]) [µM] | IC50 (Aurora kinase A) [µM] | IC50 (HepG2) [µM] | Ratio IC50 (HCT-116 [3]) |
| --- | --- | --- | --- | --- | --- | --- |
| CC1=C(C(=O)Nc2ccc(F)c(Cl)c2)C(c2cccs2)c2c[nH]nc2N1 (configuration not stated) | 0.44 |  |  |  |  |  |
| CC1=C(C(=O)Nc2ccc([N+](=O)[O-])cc2)C(c2cccs2)c2c[nH]nc2N1 (configuration not stated) | 0.82 |  |  |  |  |  |
| CC1=C(C(=O)Nc2ccc([N+](=O)[O-])cc2)C(c2ccco2)c2c[nH]nc2N1 (configuration not stated) | 2.76 |  |  |  |  |  |
| CC1=C(C(=O)Nc2ccc([N+](=O)[O-])cc2)C(c2ccco2)n2c(nc3ccccc32)N1 (configuration not stated) | 20.9 | 3.05 | 11.5 | 3 | 13.5 |  |
| CC1=C(C(=O)Nc2ccc(C(F)(F)F)cc2)C(c2ccco2)c2c[nH]nc2N1 (configuration not stated) | 1.06 |  |  |  |  |  |
| CCOC(=O)C1=C(C)NC(=S)NC1c1cccc(O)c1 (configuration not stated) [MONASTROL] | 5.47 |  | > 50 | > 50 |  |  |
| COc1ccc(NC(=O)C2=C(C)Nc3nc4ccccc4n3C2c2ccco2)cc1 (configuration not stated) | 2.46 | 9.34 | 8.71 | 7.58 | 4.97 |  |
| CC1=C(C(=O)Nc2ccc(C(F)(F)F)cc2)C(c2ccco2)n2c(nc3ccccc32)N1 (configuration not stated) | 3.32 |  | > 50 | 1.32 |  |  |
| CC1=C(C(=O)Nc2ccc(C(F)(F)F)cc2)C(c2cccs2)c2c[nH]nc2N1 (configuration not stated) | 0.32 |  |  |  |  |  |
| CC1=C(C(=O)Nc2ccc(F)cc2)C(c2ccco2)n2c(nc3ccccc32)N1 (configuration not stated) | 5.65 | > 50 | 4.96 | 6.15 | 7.38 | 2.5 |
| CC1=C(C(=O)Nc2ccc(Cl)cc2)C(c2ccccc2)C2=C(CC(C)(C)CC2=O)N1 (configuration not stated) | 0.18 |  |  |  |  |  |
| CC1=C(C(=O)Nc2ccc(F)c(Cl)c2)C(c2ccco2)c2c[nH]nc2N1 (configuration not stated) | 0.4 |  |  |  |  |  |
| CCC(c1nc2cc(Cl)ccc2c(=O)n1Cc1ccccc1)N(CCCN(C)C)C(=O)c1ccc(Br)cc1 (configuration not stated) [CK0106023] | 0.029 | 3 | 0.94 | > 50 | 2.1 |  |
| CN(C)c1ccc(-c2nc3cc(Cl)cnc3[nH]2)cc1 | 40.2 | 4.26 | 4.71 | 4.97 | 5.85 |  |
| CC1=C(C(=O)Nc2ccc(F)c(Cl)c2)C(c2ccco2)n2c(nc3ccccc32)N1 (configuration not stated) | 0.96 | > 50 | 10.9 | 5.73 | 26 |  |

Continued, in another order:

| IC50 [1] [µM] | IC50 (A2780) [µM] | IC50 (HCT-116 [2]) [µM] | IC50 (Aurora kinase A) [µM] | IC50 (HepG2) [µM] | Compound | Ratio IC50 (HCT-116 [3]) |
| --- | --- | --- | --- | --- | --- | --- |
| 0.14 |  |  |  |  | CC1=C(C(=O)Nc2ccc(F)cc2)C(c2ccccc2)c2c[nH]nc2N1 (configuration not stated) |  |
| 0.2 |  |  |  |  | CC1=C(C(=O)Nc2ccc([N+](=O)[O-])cc2)C(c2ccccc2)c2c[nH]nc2N1 (configuration not stated) |  |
| 0.0025 |  |  |  |  | COc1ccc(NC(=O)C2=C(C)Nc3n[nH]cc3C2c2cccs2)cc1 (configuration not stated) |  |
| 10.4 |  |  |  |  | CC1=C(C(=O)Nc2ccc(F)cc2)C(c2ccco2)c2c[nH]nc2N1 (configuration not stated) |  |
| 0.0011 |  |  |  |  | COc1ccc(NC(=O)C2=C(C)Nc3n[nH]cc3C2c2ccco2)cc1 (configuration not stated) |  |
| 0.4 |  |  |  |  | CC1=C(C(=O)Nc2ccc(C(F)(F)F)cc2)C(c2ccccc2)c2c[nH]nc2N1 (configuration not stated) |  |
| 0.17 |  |  |  |  | CC1=C(C(=O)Nc2ccc(F)c(Cl)c2)C(c2ccccc2)c2c[nH]nc2N1 (configuration not stated) |  |
| 2.82 |  |  |  |  | COc1ccc(NC(=O)C2=C(C)Nc3n[nH]cc3C2c2ccccc2)cc1 (configuration not stated) |  |
